From US20240109881A1, “Heteroaryl Compounds as Ligand Directed Degraders of IRAK4” (Bristol-Myers Squibb Company, priority 2022, published 2024)

Molecular target: T1, IRAK4 (Homo sapiens, UniProt Q9NWZ3)
T1 construct: endogenous in cells; host or cells: THP-1 cells
T1 sequence (Q9NWZ3 1-460): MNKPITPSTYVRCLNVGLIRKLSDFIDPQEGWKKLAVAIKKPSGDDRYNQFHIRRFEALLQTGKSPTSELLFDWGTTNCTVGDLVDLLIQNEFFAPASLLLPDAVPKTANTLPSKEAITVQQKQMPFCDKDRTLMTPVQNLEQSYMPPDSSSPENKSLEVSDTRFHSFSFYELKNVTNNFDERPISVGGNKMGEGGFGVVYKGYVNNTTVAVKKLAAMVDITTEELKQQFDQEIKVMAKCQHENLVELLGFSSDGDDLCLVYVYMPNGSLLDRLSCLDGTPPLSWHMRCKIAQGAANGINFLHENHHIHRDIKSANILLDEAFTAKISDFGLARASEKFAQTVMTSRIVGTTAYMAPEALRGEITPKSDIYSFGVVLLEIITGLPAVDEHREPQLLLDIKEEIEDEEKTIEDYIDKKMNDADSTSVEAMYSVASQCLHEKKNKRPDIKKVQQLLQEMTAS
Experiment: LVL THP1 HTRF (THP1 Homogeneous Time Resolved Fluorescence)
Type: cell-based
Settings: THP1 cells, 18 h incubation with compound; for DC50: read-out: LVL THP1 HTRF EC50
In short: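 THP-1 cells in phenol red-free RPMI with 10% FBS were dosed with compound (20 nL in DMSO) for 18 h at 37° C. After 2 h lysis, IRAK4 was detected with anti-IRAK4-d2/anti-IRAK4-K HTRF antibodies for 18 h at room temperature and read at 665/615 nm; a parallel CTG plate was run.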

Compound	LVL THP1 HTRF YMIN	DC50
C[C@H](C#N)Nc1cc(-n2ncc3cc(C#N)cnc32)ncc1-n1cc([C@H]2CC[C@H](CCN3CC[C@H]4[C@@H]3CCN4c3ccc(N4CCC(=O)NC4=O)c(F)c3)CC2)nn1 (single isomer, unassigned) [P-480]	0.8%	26 nM
C[C@H](C#N)Nc1cc(-n2ncc3cc(C#N)c(N)nc32)ncc1-n1cc([C@H]2CC[C@H](CCN3CCC(c4ccc([C@@]5(F)CCC(=O)NC5=O)cc4)CC3)CC2)nn1 (single isomer, unassigned) [P-317]	2.0%	1.3 nM
C[C@H](C#N)Nc1cc(-n2ncc3cc(C#N)cnc32)ncc1C(=O)N[C@H]1CC[C@H](CCN2CCC(c3ccn(C4CCC(=O)NC4=O)c(=O)c3)CC2)CC1 (stereo partly shown) [P-425]	0.8%	124 nM
COc1cc([C@@]2(C)CCC(=O)NC2=O)ccc1N1CCN(CC[C@H]2CC[C@H](c3cn(-c4cnc(-n5ncc6cc(C#N)c(N)nc65)cc4N[C@H](C)C#N)nn3)CC2)C[C@H]1C (single isomer, unassigned) [P-304]	5.0%	11.9 nM
C[C@H](C#N)Nc1cc(-n2ncc3cc(C#N)cnc32)ncc1-c1cnn([C@H]2CC[C@H](CCN3CCN(c4ccc(C5CCC(=O)NC5=O)cc4)CC3)CC2)c1 (stereo partly shown) [P-203]	–	11 nM
C[C@H](C#N)Nc1cc(-n2ncc3cc(C#N)cnc32)ncc1-n1cc([C@H]2CC[C@H](CCN3CCC[C@@H]4[C@H]3CCCN4c3ccc([C@@]4(C)CCC(=O)NC4=O)cc3)CC2)nn1 (single isomer, unassigned) [P-414]	71.4%	2350 nM
C[C@H](C#N)Nc1cc(-n2ncc3cncnc32)ncc1-n1cc(C2CCC(CCN3CCN(c4ccc(C5CCC(=O)NC5=O)cc4)CC3)CC2)nn1 (stereo partly shown) [P-218]	4.3%	–
C[C@H](C#N)Nc1cc(-n2ncc3cc(C#N)cnc32)ncc1-n1cc([C@H]2CC[C@H](CCN3CCC(c4ccc(N5CCC(=O)NC5=O)cc4)C(F)C3)CC2)nn1 (single isomer, unassigned) [P-400]	7.8%	27.9 nM
CC(C)(O)CNc1cc(-n2ncc3cc(C#N)cnc32)ncc1-n1cc([C@H]2CC[C@H](CCN3CCN(c4ccc(C5CCC(=O)NC5=O)cc4)CC3)CC2)nn1 (stereo partly shown) [P-391]	−0.8%	3.7 nM
C[C@H](C#N)Nc1cc(-n2ncc3cc(C#N)cnc32)ncc1-n1cc(C2CCC(CCN3CCN(c4ccc(C5CCC(=O)NC5=O)cc4)C4COCC43)CC2)nn1 (single isomer, unassigned) [P-237]	2.8%	7 nM
C[C@H](C#N)Nc1cc(-n2ncc3cc(C#N)cnc32)ncc1C(=O)N[C@H]1CC[C@H](CCN2CC[C@@H](c3ccc([C@@]4(C)CCC(=O)NC4=O)cc3)C[C@@H]2C)CC1 [P-271]	9.9%	18.8 nM
CC[C@@H]1CN(CC[C@H]2CC[C@H](c3cn(-c4cnc(-n5ncc6cc(C#N)c(N)nc65)cc4N[C@H](C)C#N)nn3)CC2)CCN1c1ccc(N2CCC(=O)NC2=O)cc1 [P-447]	0.8%	0.6 nM
C[C@H](C#N)Nc1cc(-n2ncc3cc(C#N)cnc32)ncc1-n1cc([C@H]2CC[C@H](CCN3CCCN(c4ccc(N5CCC(=O)NC5=O)cc4)CC3)CC2)nn1 [P-355]	58.0%	327 nM
C[C@H](C#N)Nc1nc(-n2ncc3cc(C#N)cnc32)ncc1C(=O)N[C@H]1CC[C@H](CCN2CCN(c3ccc(C4CCC(=O)NC4=O)cc3)CC2)CC1 (stereo partly shown) [P-376]	7.2%	30.3 nM
C[C@H](C#N)Nc1cc(-n2ncc3cc(C#N)cnc32)ncc1-n1cc([C@H]2CC[C@H](CCN3CCC(c4ccc(N5CCC(=O)NC5=O)nc4)CC3)CC2)nn1 [P-341]	81.8%	2.4 nM
C[C@@H]1CN(CC[C@H]2CC[C@H](c3cn(-c4cnc(-n5ncc6cc(C#N)cnc65)cc4NC4(C#N)CC4)nn3)CC2)CCN1c1ccc([C@@]2(C)CCC(=O)NC2=O)cc1 [P-301]	17.8%	103 nM
C[C@H](C#N)Nc1cc(-n2ncc3cc(C#N)cnc32)ncc1C(=O)N[C@H]1CC[C@H](CCN2CCN(c3ccc([C@@]4(C)CCC(=O)NC4=O)cc3)[C@@H](C)C2)CC1 [P-275]	2.9%	14.6 nM
C[C@H](C#N)Nc1cc(-n2ncc3cc(C#N)cnc32)ncc1-n1cc([C@H]2CC[C@H](CCN3CC[C@H]4[C@@H]3CCN4c3ccc([C@@]4(C)CCC(=O)NC4=O)cc3)CC2)nn1 (single isomer, unassigned) [P-462]	3.3%	6.1 nM
Cc1cc(C2CCN(CC[C@H]3CC[C@H](c4cn(-c5cnc(-n6ncc7cc(C#N)cnc76)cc5N[C@H](C)C#N)nn4)CC3)CC2)ccc1N1CCC(=O)NC1=O [P-336]	5.5%	25.1 nM
C[C@H](C#N)Nc1cc(-n2ncc3cc(C#N)cnc32)ncc1-n1cc([C@H]2CC[C@H](CCN3CCN(c4ncc(N5CCC(=O)NC5=O)cn4)[C@H](C)C3)CC2)nn1 [P-438]	2.2%	3.4 nM
C[C@H](C#N)Nc1cc(-n2ncc3cc(C#N)cnc32)ncc1-c1cc(C2CCC(CCN3CCN(c4ccc(C5CCC(=O)NC5=O)cc4)CC3)CC2)on1 (stereo partly shown) [P-196]	3.5%	–
C[C@H](C#N)Nc1cc(-n2ncc3cc(C#N)c(N)nc32)ncc1-n1cc(C2CCC(CCN3[C@H](C)CN(c4ccc([C@@]5(C)CCC(=O)NC5=O)cc4)C[C@H]3C)CC2)nn1 (stereo partly shown) [P-242]	2.5%	23 nM
C[C@H](C#N)Nc1cc(-n2ncc3cncnc32)ncc1-n1cc(C2CCC(CCN3CCN(c4ccc([C@@]5(C)CCC(=O)NC5=O)cc4)CC3)CC2)nn1 (stereo partly shown) [P-225]	3.5%	–
C[C@H](C#N)Nc1cc(-n2ncc3cc(C#N)cnc32)ncc1-n1cc([C@H]2CC[C@H](CCN3CC[C@H]4[C@@H]3CCN4c3ccc([C@@]4(C)CCC(=O)NC4=O)cn3)CC2)nn1 (single isomer, unassigned) [P-435]	52.3%	123 nM
N#Cc1cnc2c(cnn2-c2cc(NC3CCCC3)c(-n3cc([C@H]4CC[C@H](CCN5CCN(c6ccc(N7CCC(=O)NC7=O)cc6)CC5)CC4)nn3)cn2)c1 [P-412]	15.2%	160 nM
C[C@H](C#N)Nc1cc(-n2ncc3cc(C#N)cnc32)ncc1-c1ncn([C@H]2CC[C@H](CCN3CCN(c4ccc(C5CCC(=O)NC5=O)cc4)CC3)CC2)n1 (stereo partly shown) [P-224]	–	60 nM
C[C@H](C#N)Nc1cc(-n2ncc3cc(C#N)cnc32)ncc1-n1cc([C@H]2CC[C@H](CCN3CC=C(c4ccc(N5CCC(=O)NC5=O)cc4)CC3)CC2)nn1 [P-330]	2.3%	17.4 nM
